Values of other authors in article PMC7032176 (Asian Journal of Pharmaceutical Sciences, 2018).

Key:
[1] = at 25 °C

oral bioavailability: up to 6%
water solubility [1]: about 5 ng/ml
Structure (SMILES): CC(C)(Sc1cc(C(C)(C)C)c(O)c(C(C)(C)C)c1)Sc1cc(C(C)(C)C)c(O)c(C(C)(C)C)c1 [Probucol]
